Source: US20210069135A1, “THERAPEUTIC APPROACHES FOR TREATING EPILEPSY AND RELATED DISORDERS THROUGH REDUCTION OF EPILEPTOGENESIS” (PHARNEXT, priority 2012, published 2021)
Entries after “also recorded” stand apart in the source; their conditions may differ.

What was measured:
neuronal cortical cells = experiment: Glutamate toxicity assay on primary cortical neuron cells (neurite network, neurofilament immunostaining); type: cell-based, rat; settings: for protection against glutamate toxicity, drug alone: torasemide or baclofen alone at the same doses as in the combination of FIG. 4 (400 nM, 2 μM), not significant
Protocol: Rat cortical neurons were cultured as described by Singer et al.. Briefly, pregnant female rats of 15 days gestation were killed by cervical dislocation (Rats Wistar) and the fetuses were removed from the uterus. The cortex was removed and placed in ice-cold medium of Leibovitz (L15) containing 2% of penicillin 10,000 U/mL and streptomycin 10 mg/mL and 1% of bovine serum albumin (BSA). Cortices were dissociated by trypsin for 20 min at 37° C. (0.05%). The reaction was stopped by the addition of Dulbecco's modified Eagle's medium (DMEM) containing DNasel grade II and 10% of foetal calf serum (FCS). Cells were then mechanically dissociated by 3 serial passages through a 10 mL pipette and centrifuged at 515×g for 10 min at +4° C. The supernatant was discarded and the pellet of cells was re-suspended in a defined culture medium consisting of Neurobasal supplemented with B27 (2%), L-glutamine (0.2 mM), 2% of PS solution and 10 ng/mL of BDNF. Viable cells were counted in a Neubauer cytometer using the trypan blue exclusion test. The cells were seeded at a density of 30 000 cells/well in 96 well-plates (wells were pre-coated with poly-L-lysine (10 μg/mL)) and were cultured at +37° C. in a humidified air (95%)/CO2 (5%) atmosphere.
After 12 days of neuron culture, drugs of the candidate combinations were solved in culture medium (+0.1% DMSO). Candidate drugs or drug combinations were then pre-incubated with neurons for 1 h before the glutamate injury. Glutamate was added for 20 min, to a final concentration of 40 μM in presence of candidate drugs or drug combinations. At the end of the incubation, medium was changed with medium with candidate combination but without glutamate. The culture was fixed 24 h after glutamate injury. MK801 (Dizocilpinehydrogen maleate, 77086-22-7-20 μM) was used as a positive control.
After permeabilization with saponin (Sigma), cells were blocked for 2 h with PBS containing 10% goat serum, then the cells were incubated with mouse monoclonal primary antibody against Neurofilament antibody (NF, Sigma).
Nuclei of cells were labeled by a fluorescent marker (Hoechst solution, SIGMA), and neurite network quantified. Six wells per condition were used to assess neuronal survival in 3 different cultures.

[1] = test system: PTZ-induced seizures in mice; experiment: Pentylenetetrazol (PTZ)-induced seizure in mice model; type: in vivo, CD-1 mice
Protocol: Four to five week old male CD-1 mice of about 20 g (Janvier; Le Genest St Isle—France) were acclimatized to the environment for one week before the experiment.
They were group-housed (5-10 mice per cage) and maintained in a room with controlled temperature (21-22° C.) and a reversed light-dark cycle (12 h/12 h; lights on: 17:30-05:30; lights off: 05:30-17:30) with food and water available ad libitum.
PTZ-induced seizures in mice are an accepted in vivo model for the screening of antiepileptic drugs. PTZ is a blocker of the chloride ionophore complex to the GABAA receptor that has […] effects after repeated or single dose administration and also affects several neurotransmitter systems, such as the GABAergic and glutamatergic systems. Seizures were induced by administration of 100 mg/kg (subcutaneously) of PTZ. Levetiracetam (500 mg/kg), used as an internal positive control, was administered 60 min before the PTZ injection. Drugs of the invention were injected per os 2 h before PTZ administration. Acamprosate calcium (two molecules of acamprosate for a calcium ion) was tested at three different doses.
As already stated, 100 mg/kg PTZ were injected subcutaneously and the animals were then observed for 1 h after injection. The latencies for clonic seizures, tonic seizures, and death were monitored. Clonic seizures consist in rhythmic contractions of forelimbs and/or hindlimbs. Tonic seizures consist in rigid extension of the forelimbs and/or hindlimbs.
Analysis of variance (ANOVA) was performed on the result data. Fisher's Protected Least Significant Difference was used for pairwise comparisons. Statistical difference was assessed by Fisher's exact test. p values≤0.05 were considered significant.

[2] = sulfisoxazole 6.8 nM alone or torasemide 400 nM alone, FIG. 2
[3] = cinacalcet 64 μM alone or mexiletine 25.6 μM alone, FIG. 1
[4] = baclofen 400 nM alone or acamprosate 1.6 nM alone, FIG. 3
[5] = baclofen 2 μM alone or torasemide 400 nM alone, FIG. 4
[6] = high dose of acamprosate calcium
[7] = low dose of acamprosate calcium
[8] = levetiracetam 500 mg/kg 60 min before PTZ

## Cc1noc(NS(=O)(=O)c2ccc(N)cc2)c1C [sulfisoxazole, Sulfisoxazole]
Neuronal cortical cells; [2]
  effect on glutamate intoxication, drug alone: no significant effect

## Cc1cccc(C)c1OCC(C)N (stereo not shown) [mexiletine, Mexiletine]
Neuronal cortical cells; [3]
  effect on glutamate intoxication, drug alone: no protection at all; also recorded: no significant effect

## CC(=O)NCCCS(=O)(=O)O [acamprosate, Acamprosate]
Neuronal cortical cells; [4]
  effect on glutamate intoxication, drug alone: no statistically significant effect

## NCC(CC(=O)O)c1ccc(Cl)cc1 (stereo not shown) [baclofen, Baclofen]
Neuronal cortical cells; [4]
  effect on glutamate intoxication, drug alone: no statistically significant effect
Neuronal cortical cells; [5]
  effect on glutamate intoxication, drug alone: no significant results; also recorded: no statistically significant effect
Neuronal cortical cells
  protection against glutamate toxicity, drug alone: 13%

## C[C@@H](NCCCc1cccc(C(F)(F)F)c1)c1cccc2ccccc12 [cinacalcet, Cinacalcet]
Neuronal cortical cells; [3]
  effect on glutamate intoxication, drug alone: no protection at all; also recorded: no significant effect

## Cc1cccc(Nc2ccncc2S(=O)(=O)NC(=O)NC(C)C)c1 [torasemide, Torasemide]
Neuronal cortical cells; [5]
  effect on glutamate intoxication, drug alone: no significant results; also recorded: no statistically significant effect
Neuronal cortical cells; [2]
  effect on glutamate intoxication, drug alone: no significant effect
Neuronal cortical cells
  protection against glutamate toxicity, drug alone: 8%

## CC(=O)NCCCS(=O)(=O)[O-].CC(=O)NCCCS(=O)(=O)[O-].[Ca+2] [acamprosate calcium]
[1]; acamprosate calcium 0.032 mg/kg, PTZ 100 mg/kg s.c., not shown
  latency to clonic seizure (in words): increase
[1]; acamprosate calcium 0.5 mg/kg per os 2 h before PTZ 100 mg/kg s.c., FIG. 6, p<0.05 vs vehicle
  latency to clonic seizure (in words): significant increase
[1]; acamprosate calcium 0.5 mg/kg per os 2 h before PTZ 100 mg/kg s.c., FIG. 6, p<0.05 vs vehicle, listed as Acamprosate calcium
  latency to clonic seizure (in words): efficient in increasing
[1]; [6]
  reduction of prevalence of death: 38%
  reduction of prevalence of mice with clonic seizure: 30%
  reduction of prevalence of mice with tonic seizure: 38%
[1]; [7]
  reduction of prevalence of death: 25%
  reduction of prevalence of mice with clonic seizure: 20%
  reduction of prevalence of mice with tonic seizure: 25%

## CC[C@@H](C(N)=O)N1CCCC1=O [levetiracetam]
[1]; [8]
  PTZ-induced death (in words): reversed
  PTZ-induced tonic seizure (in words): reversed
[1]; levetiracetam 500 mg/kg 60 min before PTZ 100 mg/kg s.c., FIG. 6
  time to clonic seizure (in words): no significant effect
